Data as given in patent US9266847B2, “Compounds, probes, and methods of synthesis and methods of imaging COX-2-associated diseases” (Vanderbilt University, priority 2012, dated 2016).

Target: T1, ovine COX2 (Ovis aries, UniProt P79208)
T1 sequence (P79208 17-603): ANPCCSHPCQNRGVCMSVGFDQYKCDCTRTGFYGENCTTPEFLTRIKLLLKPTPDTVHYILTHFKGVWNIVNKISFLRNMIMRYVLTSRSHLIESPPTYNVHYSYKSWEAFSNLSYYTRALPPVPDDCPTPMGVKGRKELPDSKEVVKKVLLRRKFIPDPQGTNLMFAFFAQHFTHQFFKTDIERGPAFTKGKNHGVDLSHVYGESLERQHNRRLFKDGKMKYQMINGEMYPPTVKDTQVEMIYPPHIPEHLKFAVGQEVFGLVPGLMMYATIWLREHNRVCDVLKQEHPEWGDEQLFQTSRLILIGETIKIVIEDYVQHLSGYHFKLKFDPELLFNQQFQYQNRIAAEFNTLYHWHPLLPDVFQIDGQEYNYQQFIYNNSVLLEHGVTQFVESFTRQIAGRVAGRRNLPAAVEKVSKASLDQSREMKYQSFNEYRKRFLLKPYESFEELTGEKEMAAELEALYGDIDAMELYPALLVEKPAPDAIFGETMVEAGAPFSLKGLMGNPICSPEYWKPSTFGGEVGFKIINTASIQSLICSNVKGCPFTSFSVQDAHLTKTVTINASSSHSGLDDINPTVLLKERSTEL
Test: IC50 assay, Cayman colorimetric COX inhibitor screening assay kit
Conditions: FIG. 2, 10 duplicate concentrations
Description: Various concentrations of the ^19F-COX2 compound ranging from 0.1 μM to 0.3 nM were dispensed into designated wells within a 96-well microtiter plate at a final volume of 220 μL per well. Each well contained an assay buffer, heme, and ovine COX2 provided in Cayman's colorimetric COX inhibitor screening assay kit. […] Five minutes after incubation of all assay components at 25° C., an arachidonic acid substrate at a final concentration of 100 μM and the colorimetric co-substrate N,N,N′,N′-tetramethyl-p-phenylenediamine were added to each well. The plate was then incubated at 25° C. for an additional 5 min before reading the absorbance at 590 nm using a plate reader. Absorbance of the duplicate assay of each well was averaged and subtracted from the 100% initial activity sample, after which it was divided by the 100% initial activity sample and multiplied by 100 to arrive at the percentage of inhibition.

Hill slope of the inhibition curve: −0.62
SMILES: Cc1csc(Cc2c3cccccc-3c(C(=O)c3ccc(F)cc3)c2C)n1 [^19F-COX2]
